Measured values as given in patent US7598245B2 (Vertex Pharmaceuticals Incorporated, priority 2003, dated 2009).

Assays:
Assay type in all cases: biochemical
CDK-2/Cyclin A = target: T1, CDK-2/Cyclin A (Homo sapiens, UniProt P24941); assay: Inhibition of CDK-2, coupled enzyme assay; details: 100 μM ATP, 30° C.
T1 construct: 25 nM CDK-2/Cyclin A
Experimental: Compounds are screened for their ability to inhibit CDK-2/Cyclin A using a standard coupled enzyme assay [Fox et al. Protein Sci. 1998, 7, 2249]. Reactions were carried out in 100 mM HEPES (pH 7.5), 10 mM MgCl2, 25 mM NaCl, 1 mM DTT and 1.5% DMSO. Final substrate concentrations in the assay are 100 μM ATP (Sigma chemicals) and 100 μM peptide (American Peptide, Sunnyvale, Calif.). Assays are carried out at 30° C. and 25 nM CDK-2/Cyclin A. Final concentrations of the components of the coupled enzyme system are 2.5 mM phosphoenolpyruvate, 350 μM NADH, 30 μg/ml pyruvate kinase and 10 μg/ml lactate dehydrogenase.
An assay stock buffer solution is prepared containing all of the reagents listed above, with the exception of CDK-2/Cyclin A, DTT and the test compound of interest. 56 μl of the test reaction is placed in a 384 well plate followed by addition of 1 μl of 2 mM DMSO stock containing the test compound (final compound concentration 30 μM). The plate is preincubated for ˜10 minutes at 30° C. and the reaction initiated by addition of 10 μl of enzyme (final concentration 25 nM). Rates of reaction are obtained using a BioRad Ultramark plate reader (Hercules, Calif.) over a 5 minute read time at 30° C. Ki values are determined according to standard methods.

Aurora-2 = target: T2, Aurora-2 (Homo sapiens, UniProt O14965); assay: Inhibition of AUR-2, coupled enzyme assay
T2 construct: addition of 10 μL of Aurora-2 stock solution to give a final concentration of 70 nM
T2 sequence (O14965 1-403): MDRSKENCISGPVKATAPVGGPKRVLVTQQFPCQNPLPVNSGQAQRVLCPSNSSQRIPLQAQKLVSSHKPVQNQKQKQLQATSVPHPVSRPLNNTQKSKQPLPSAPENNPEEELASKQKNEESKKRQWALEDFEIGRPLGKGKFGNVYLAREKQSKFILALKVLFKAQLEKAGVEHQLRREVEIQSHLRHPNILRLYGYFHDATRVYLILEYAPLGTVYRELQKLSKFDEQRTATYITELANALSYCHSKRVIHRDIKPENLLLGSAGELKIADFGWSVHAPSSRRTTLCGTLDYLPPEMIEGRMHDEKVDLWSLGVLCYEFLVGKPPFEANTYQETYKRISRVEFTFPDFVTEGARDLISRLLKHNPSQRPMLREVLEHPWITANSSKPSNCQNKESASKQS
Experimental: Compounds are screened in the following manner for their ability to inhibit Aurora-2 using a standard coupled enzyme assay (Fox et al (1998) Protein Sci 7, 2249). To an assay stock buffer solution containing 0.1M HEPES 7.5, 10 mM MgCl2, 1 mM DTT, 25 mM NaCl, 2.5 mM phosphoenolpyruvate, […], 30 mg/ml pyruvate kinase, 10 mg/ml lactate dehydrogenase, 40 mM ATP, and 800 μM peptide (LRRASLG, American Peptide, Sunnyvale, Calif.) is added a DMSO solution of a compound of the present invention to a final concentration of 30 μM. The resulting mixture is incubated at 30° C. for 10 min. The reaction was initiated by the addition of 10 μL of Aurora-2 stock solution to give a final concentration of 70 nM in the assay. The rates of reaction are obtained by monitoring absorbance at 340 nm over a 5 minute read time at 30° C. using a BioRad Ultramark plate reader (Hercules, Calif.). The Ki values are determined from the rate data as a function of inhibitor concentration.

c-KIT = target: T3, c-KIT (Homo sapiens, UniProt P10721); assay: Inhibition of c-KIT, radiometric filter-binding assay; details: 700 μM ATP, pE4Y substrate
T3 construct: 0.02% BSA and 25 nM c-KIT
Experimental: Compounds are screened for their ability to inhibit c-KIT activity using a radiometric filter-binding assay. This assay monitors the ^33P incorporation into a substrate poly(Glu, Tyr) 4:1 (pE4Y). Reactions are carried out in a solution containing 100 mM HEPES (pH 7.5), 10 mM MgCl2, 25 mM NaCl, 1 mM DTT, 0.01% BSA and 2.5% DMSO. Final substrate concentrations in the assay were 700 μM ATP and 0.5 mg/mL pE4Y (both from Sigma Chemicals, St Louis, Mo.). The final concentration of compounds is generally between 0.01 and 5 μM. Typically, a 12-point titration is conducted by preparing serial dilutions from 10 mM DMSO stock of test compound. Reactions were carried out at room temperature.
Two assay solutions are prepared. Solution 1 contains 100 mM HEPES (pH 7.5), 10 mM MgCl2, 25 mM NaCl, 1 mg/ml pE4Y and 1.4 mM ATP (containing 0.5 μCi of [γ-^33P]ATP for each reaction). Solution 2 contains 100 mM HEPES (pH 7.5), 10 mM MgCl2, 25 mM NaCl, 2 mM DTT, 0.02% BSA and 25 nM c-KIT. The assay is run on a 96 well plate by mixing 33 μL of Solution1 and 1.65 μL of the test compounds. The reaction is initiated with 33 μL of Solution2. After incubation for 20 minutes at room temperature, the reaction was stopped with 50 μL of 10% TCA containing 0.2 mM of ATP. All of the reaction volume is then transferred to a filter plate and washed with 5% TCA by a Harvester9600 from TOMTEC (Hamden, Conn.). The amount of ^33P incorporation into pE4y is analyzed by a Packard TopCount Microplate Scintillation Counter (Meriden, Conn.). The data is fitted using Prism software to get an IC50 or Ki.

T3 sequence (P10721 26-976): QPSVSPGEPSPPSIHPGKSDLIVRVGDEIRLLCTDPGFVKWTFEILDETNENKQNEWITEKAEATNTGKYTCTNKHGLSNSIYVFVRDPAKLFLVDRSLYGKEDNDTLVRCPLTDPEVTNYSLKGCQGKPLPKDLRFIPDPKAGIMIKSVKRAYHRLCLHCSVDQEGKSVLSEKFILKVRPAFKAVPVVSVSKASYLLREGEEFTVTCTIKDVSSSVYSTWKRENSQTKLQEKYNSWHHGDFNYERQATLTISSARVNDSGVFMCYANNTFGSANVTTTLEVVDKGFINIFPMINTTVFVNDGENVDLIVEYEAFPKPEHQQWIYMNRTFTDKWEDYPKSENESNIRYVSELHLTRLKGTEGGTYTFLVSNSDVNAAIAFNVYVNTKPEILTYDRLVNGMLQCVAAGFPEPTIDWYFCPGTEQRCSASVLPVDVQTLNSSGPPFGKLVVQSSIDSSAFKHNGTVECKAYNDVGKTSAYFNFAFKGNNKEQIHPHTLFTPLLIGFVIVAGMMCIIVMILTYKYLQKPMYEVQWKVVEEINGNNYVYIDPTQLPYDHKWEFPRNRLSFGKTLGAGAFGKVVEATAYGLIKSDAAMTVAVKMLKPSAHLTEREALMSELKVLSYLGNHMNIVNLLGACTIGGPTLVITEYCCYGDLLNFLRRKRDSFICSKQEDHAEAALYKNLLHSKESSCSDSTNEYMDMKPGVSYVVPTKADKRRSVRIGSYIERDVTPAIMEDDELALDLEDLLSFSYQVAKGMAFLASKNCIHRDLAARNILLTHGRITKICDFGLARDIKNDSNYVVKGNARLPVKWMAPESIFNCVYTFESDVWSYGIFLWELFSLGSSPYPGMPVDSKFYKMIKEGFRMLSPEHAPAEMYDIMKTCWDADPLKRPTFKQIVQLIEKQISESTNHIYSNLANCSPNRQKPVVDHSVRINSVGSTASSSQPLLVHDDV

Row | Structure (SMILES) | Ki (CDK-2/Cyclin A) [nM] | Ki (Aurora-2) [nM] | Ki (c-KIT) [nM]
1 | COc1cc(Nc2ncn(-c3ccccc3)n2)cc(OC)c1OC [Compound I-42] | > 1000 | 100 to 1000 | 
2 | COc1cc(Nc2ncn(-c3ccc(C#N)cc3)n2)cc(OC)c1OC [Compound I-43] | 500 to 1000 | 100 to 1000 | 
3 | CC(C)Oc1cccc(Nc2ncn(-c3ccccc3)n2)c1 [Compound I-46] | > 1000 | > 1000 | < 50
4 | CCOC(=O)c1ccc(Nc2ncn(-c3ccnc(N4C[C@@H](C)N(C(C)=O)[C@@H](C)C4)c3)n2)cc1 [Compound I-75] | 500 to 1000 | < 100 | < 50
5 | CC(=O)N1[C@H](C)CN(c2cc(-n3cnc(Nc4ccc(NC(=O)N(C)C)cc4)n3)ccn2)C[C@@H]1C [Compound I-77, 3-(4-{1-[2-(4-Acetyl-3,5-dimethyl-piperazin-1-yl)-pyridin-4-yl]-1H-[1,2,4]triazol-3-ylamino}-phenyl)-1,1-dimethyl-urea] | > 1000 | < 100 | 50 to 500
6 | COC(=O)Nc1ccc(Nc2ncn(-c3ccnc(N4C[C@@H](C)N(C(C)=O)[C@@H](C)C4)c3)n2)cc1 [Compound I-78] | < 500 | < 100 | 50 to 500
7 | CC(=O)N1[C@H](C)CN(c2cc(-n3cnc(Nc4ccc(NC(=O)C(F)(F)F)cc4)n3)ccn2)C[C@@H]1C [Compound I-79] | < 500 | < 100 | 50 to 500
8 | CCCOC(=O)Nc1ccc(Nc2ncn(-c3ccnc(N4C[C@@H](C)N(C(C)=O)[C@@H](C)C4)c3)n2)cc1 [Compound I-88] | < 500 | < 100 | 50 to 500
9 | CC(=O)N1[C@H](C)CN(c2cc(-n3cnc(Nc4ccc(NC(=O)OC(C)C)cc4)n3)ccn2)C[C@@H]1C [Compound I-89] | 500 to 1000 | < 100 | 50 to 500

Second part, the molecule after the results:

Row | Ki (CDK-2/Cyclin A) [nM] | Ki (Aurora-2) [nM] | Ki (c-KIT) [nM] | Structure (SMILES)
10 | > 1000 | > 1000 | < 50 | CCOc1cccc(Nc2ncn(-c3ccccc3)n2)c1 [Compound I-45]
11 | < 500 | 100 to 1000 |  | OC[C@H]1CCCN(c2cc(-n3cnc(Nc4ccccc4)n3)ccn2)C1 [Compound I-65]
12 | 500 to 1000 | 100 to 1000 | 50 to 500 | CC(=O)N1CCCN(c2cc(-n3cnc(Nc4ccccc4)n3)ccn2)CC1 [Compound I-66]
13 | > 1000 | 100 to 1000 |  | CCC(=O)N1CCCN(c2cc(-n3cnc(Nc4ccccc4)n3)ccn2)CC1 [Compound I-67]
14 | > 1000 | 100 to 1000 |  | COCC(=O)N1CCCN(c2cc(-n3cnc(Nc4ccccc4)n3)ccn2)CC1 [Compound I-71]
15 | < 500 | 100 to 1000 | 50 to 500 | N#CCC(=O)N1CCCN(c2cc(-n3cnc(Nc4ccccc4)n3)ccn2)CC1 [Compound I-72]
16 | < 500 | < 100 | 50 to 500 | c1ccc(Nc2ncn(-c3ccnc(N4CCCCCC4)c3)n2)cc1 [Compound I-73]
17 | < 500 | < 100 | 50 to 500 | CC(=O)N1[C@H](C)CN(c2cc(-n3cnc(Nc4ccccc4)n3)ccn2)C[C@@H]1C [Compound I-74]
18 | < 500 | < 100 | 50 to 500 | CC(=O)N1[C@H](C)CN(c2cc(-n3cnc(Nc4ccc(N)cc4)n3)ccn2)C[C@@H]1C [Compound I-82]
19 | < 500 | < 100 | 50 to 500 | CC(=O)N1[C@H](C)CN(c2cc(-n3cnc(Nc4ccc(N5CCOCC5)cc4)n3)ccn2)C[C@@H]1C [Compound I-85, 1-(2,6-Dimethyl-4-{4-[3-(4-morpholin-4-yl-phenylamino)-[1,2,4]triazol-1-yl]-pyridin-2-yl}-piperazin-1-yl)-ethanone]
20 | 500 to 1000 | 100 to 1000 | < 50 | c1ccc(-n2cnc(Nc3ccnc(N4CCOCC4)c3)n2)cc1 [Compound I-105]
